Data on 34 compounds can be found in ChEMBL document CHEMBL3603812, “Biarylsulfonamide CCR9 inhibitors for inflammatory bowel disease” (Bioorg Med Chem Lett, 2015).

Data set [1] addresses T1, C-C chemokine receptor type 9 (Homo sapiens, UniProt P51686).
T1 sequence (P51686 whole entry): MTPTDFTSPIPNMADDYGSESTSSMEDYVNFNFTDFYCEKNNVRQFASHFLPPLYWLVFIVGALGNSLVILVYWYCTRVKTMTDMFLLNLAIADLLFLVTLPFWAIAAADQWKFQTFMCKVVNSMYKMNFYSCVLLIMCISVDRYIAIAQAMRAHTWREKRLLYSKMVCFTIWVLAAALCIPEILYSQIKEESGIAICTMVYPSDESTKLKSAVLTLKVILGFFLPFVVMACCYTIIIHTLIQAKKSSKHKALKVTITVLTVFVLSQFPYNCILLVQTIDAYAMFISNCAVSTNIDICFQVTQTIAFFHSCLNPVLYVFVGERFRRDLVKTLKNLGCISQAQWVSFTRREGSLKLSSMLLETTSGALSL
Description: Antagonist activity at CCR9 receptor (unknown origin) assessed as inhibition of TECK-induced calcium mobilization incubated for 10 mins prior to TECK induction

Data set [2] is described as follows: Solubility of the compound at pH 9. The data set is classed as physicochemical. The following applies: buffer.
The nature of data set [3]: Terminal half life in iv and po dosed mouse. The data set is classed as ADME, organism-based. The following applies: in vivo, read-out: beta t1/2 (converted).
Data set [4] in a line: Volume of distribution at steady state in iv dosed mouse. The following applies: in vivo, read-out: Vdss. The data set is classed as ADME, organism-based.
A short description of data set [5]: Plasma protein binding in human. The data set is classed as ADME, cell-free. The settings on record: read-out: PPB (converted).
The subject of a further data set is Mus musculus. The data set can be described thus: Dose normalized AUC in iv dosed mouse. The data set is classed as ADME, organism-based. The settings on record: in vivo.
Data set [6] can be described thus: Clearance in iv dosed mouse. The data set is classed as ADME, organism-based. The settings on record: in vivo.
Data set [7] is described as follows: Clearance in mouse liver microsomes. The data set is classed as ADME. The following applies: read-out: CLH. (In general: Liver microsomes are a subcellular fraction often used to study metabolism.)
Data set [8] is described as follows: Solubility of the compound at pH 7.4. The following applies: buffer. The data set is classed as physicochemical.
Data set [9] is described as follows: Oral bioavailability in mouse. The data set is classed as ADME, organism-based. The following applies: in vivo.
Data set [10] is described as follows: Lipophilicity, log D of the compound. The data set is classed as physicochemical. The settings on record: octanol/water.

Converted amounts (≈) assume the structure as drawn.

Broadly, the IC50 is the concentration at which inhibition is half-maximal. High values mean lower potency, low ones higher potency. For orientation: solubility means how much of the substance goes into solution per volume. Low values mean a poorly soluble substance, high ones a readily soluble substance. The clearance is the volume of plasma or blood freed of the substance per unit of time. As a reminder, the bioavailability is dose-corrected exposure relative to a reference, in per cent. The term logD denotes lipophilicity at a set pH, counting ionised and neutral species. Low values mean a more hydrophilic compound, high ones a more lipophilic compound.

In the case of `CC(C)(C)c1ccc(S(=O)(=O)Nc2ccc(Cl)cc2-c2nc(N)ncc2O)cc1`, the 50% inhibitory concentration (IC50) in data set [1] turned out to be 4 nM. That is a single-digit nanomolar value. Same read-out and setting: the figure for `CC(C)(C)c1ccc(S(=O)(=O)Nc2ccc(Cl)cc2-c2nnccc2N)cc1` is 3.8 nM.

In data set [1], `CNc1cnc(-c2cc(Cl)ccc2NS(=O)(=O)c2ccc(C(C)(C)C)cc2)c(NCCO)n1` returned a half-maximal inhibitory concentration (IC50) of 1010 nM. This IC50 is about 270-fold higher than that of the compound before. Still for that read-out and setting: as for `CC(C)(C)c1ccc(S(=O)(=O)Nc2ccc(Cl)cc2-c2nncc(N3CCOCC3)c2N)cc1`, the figure is 26 nM. As for `COc1cccnc1-c1cc(Cl)ccc1NS(=O)(=O)c1ccc(C(C)(C)C)cc1`, the IC50 in data set [1] was 958 nM. Still for that read-out and setting: as for `CC(C)(C)c1ccc(S(=O)(=O)Nc2ccc(Cl)cc2-c2nc(Cl)cnc2NCCO)cc1`, the figure is 715 nM; as for `CC(C)(C)c1ccc(S(=O)(=O)Nc2ccc(Cl)cc2-c2nccc(CO)c2O)cc1`, 8.7 nM; as for `CC(C)(C)c1ccc(S(=O)(=O)Nc2ccc(Cl)cc2-c2ncccc2O)cc1`, 29 nM. Turning to `Cc1cnc(-c2cc(Cl)ccc2NS(=O)(=O)c2ccc(C(C)(C)C)cc2)c(NCCO)n1`, half-maximal inhibition in data set [1] (IC50) required 268 nM. On the same count and under the same terms, the figure for `CC(C)(C)c1ccc(S(=O)(=O)Nc2ccc(Cl)cc2-c2nccnc2N)cc1` is 3.2 nM.

For the compound `CC(C)(C)c1ccc(S(=O)(=O)Nc2ccc(Cl)cc2-c2nccnc2NCCO)cc1`, the solubility in data set [2] stood at 1100 µg/mL (≈ 2390 µM); in data set [8], 240 µg/mL (≈ 521 µM). Moreover, the half-life in data set [3] was 1.2 h. The Vd in data set [4] was found to be 1.1 L/kg. The fraction unbound in data set [5] was 0.016. In the data set on Mus musculus, the AUC/dose is 0.65 µg·h/mL/mg/kg. In addition, the clearance in data set [6] was 26 mL/min/kg. In addition, the CLint scaled in [7] worked out at 49 mL/min/kg. In data set [9], this compound showed a bioavailability of 38%. For the same compound, half-maximal inhibition in [1] (IC50) was put at 34 nM.

`CC(C)(C)c1ccc(S(=O)(=O)Nc2ccc(Cl)cc2-c2ncncc2O)cc1` registered an IC50 in data set [1] of 11 nM. This lies in the double-digit nanomolar range.

As for `CC(C)(C)c1ccc(S(=O)(=O)Nc2ccc(Cl)cc2-c2ncnc(CO)c2O)cc1`, 11 nM corresponded to half-maximal inhibition in [1] (IC50). As to `CC(C)(C)c1ccc(S(=O)(=O)Nc2ccc(Cl)cc2-c2nccnc2NCC(=O)O)cc1`, the IC50 in data set [1] turned out to be 812 nM.

In [1], `CC(C)(C)c1ccc(S(=O)(=O)Nc2ccc(Cl)cc2-c2ncncc2N)cc1` gave a half-inhibitory concentration (IC50) of 3.2 nM. On the same count and under the same terms, the figure for `CC(C)(C)c1ccc(S(=O)(=O)Nc2ccc(Cl)cc2-c2ncccc2CN)cc1` is 3160 nM; for `CC(C)(C)c1ccc(S(=O)(=O)Nc2ccc(Cl)cc2-c2ccccn2)cc1` it is above 10000 nM; for `CC(C)(C)c1ccc(S(=O)(=O)Nc2ccc(Cl)cc2-c2nc(NCCO)ncc2O)cc1` it is 214 nM.

The compound `CNc1ncc(O)c(-c2cc(Cl)ccc2NS(=O)(=O)c2ccc(C(C)(C)C)cc2)n1` registered an IC50 in data set [1] of 27 nM.

The compound `CC(C)(C)c1ccc(S(=O)(=O)Nc2ccc(Cl)cc2-c2ncnc(N)c2O)cc1` had an IC50 in [1] of 14 nM. The same measure, in the same setting: the figure for `CC(C)(C)c1ccc(S(=O)(=O)Nc2ccc(Cl)cc2-c2ncccc2N)cc1` is 95 nM; for `COCc1cccnc1-c1cc(Cl)ccc1NS(=O)(=O)c1ccc(C(C)(C)C)cc1` it is 3480 nM. Same read-out and setting: the figure for `CCc1ncnc(-c2cc(Cl)ccc2NS(=O)(=O)c2ccc(C(C)(C)C)cc2)c1O` is 6 nM; for `CN(C)c1ncnc(-c2cc(Cl)ccc2NS(=O)(=O)c2ccc(C(C)(C)C)cc2)c1O` it is 9 nM; for `CNc1nccnc1-c1cc(Cl)ccc1NS(=O)(=O)c1ccc(C(C)(C)C)cc1` it is 25 nM.

On to `CC(C)(C)c1ccc(S(=O)(=O)Nc2ccc(Cl)cc2-c2c(O)ccc[n+]2[O-])cc1`, for which the IC50 in data set [1] amounted to 491 nM. Regarding `CCNc1nccnc1-c1cc(Cl)ccc1NS(=O)(=O)c1ccc(C(C)(C)C)cc1`, inhibition in data set [1] was half-maximal at 421 nM (IC50). As to `CC(C)(C)c1ccc(S(=O)(=O)Nc2ccc(Cl)cc2C(=O)c2cc[n+]([O-])cc2)cc1` [VERCIRNON], the solubility in data set [2] was 51 µg/mL (≈ 115 µM); in data set [8], 1.2 µg/mL (≈ 2.7 µM). In addition, the half-life in data set [3] is 1.3 h. The Vd in [4] turned out to be 0.83 L/kg. The fraction unbound in data set [5] was 0.009. This compound also yielded an AUC/dose with Mus musculus of 0.56 µg·h/mL/mg/kg. In data set [6], this compound came in with a clearance of 33 mL/min/kg. Also, the CLint scaled in data set [7] stood at 147 mL/min/kg. In [9], the bioavailability came to 10%. This compound also gave a logD in data set [10] of 3.7. Compound `CC(C)(C)c1ccc(S(=O)(=O)Nc2ccc(Cl)cc2-c2ncccn2)cc1` came in with an IC50 in [1] of 0.3 nM. The same measure, in the same setting: the figure for `CC(C)(C)c1ccc(S(=O)(=O)Nc2ccc(Cl)cc2-c2ncccc2CO)cc1` is 89 nM; for `CC(C)(C)c1ccc(S(=O)(=O)Nc2ccc(Cl)cc2-c2nccnc2NCCCO)cc1` it is 614 nM; for `COc1ccnc(-c2cc(Cl)ccc2NS(=O)(=O)c2ccc(C(C)(C)C)cc2)c1` it is 2500 nM.

In data set [1], `CC(C)(C)c1ccc(S(=O)(=O)Nc2ccc(Cl)cc2-c2nccc(C(N)=O)c2O)cc1` registered an IC50 of 52 nM. This IC50 lies about 48-fold lower than the previous one. Take `CN(C)CCNc1nccnc1-c1cc(Cl)ccc1NS(=O)(=O)c1ccc(C(C)(C)C)cc1`: in data set [1], the IC50 was determined as 3600 nM.
